{"source": "patent US4521423A", "about": "“7,8,9,10-Tetrahydrobenzo[h]quinolin-9-amine derivatives and compositions and methods for treating depression employing them” (Ayerst, McKenna & Harrison, Ltd., priority 1983, dated 1985)", "key": {"serotonin uptake": {"test_system": "serotonin uptake", "test": "in vitro [3H]serotonin uptake inhibition, rat brain preparation", "type": "biochemical", "settings": "concentration of 1×10^-6 moles", "from_the_text": "(§1) For example, the ability of the present compounds to block substantially the uptake of norepinephrine and serotonin, characteristic properties of antidepressants, can be shown in the in vitro test using rat brain preparation as described by M. H. Kannengiesser, P. Hunt and J.-P. Raynaud, Biochem. Pharmacol., 22, 73 (1973); see also E. G. Shaskan and S. H. Snyder, J. Pharmacol. Exptl. Therap., 175, 404 (1970), and J. Glowinski and L. L. Iversen, J. Neurochemistry, 13, 655 (1966)."}, "norepinephrine uptake": {"test_system": "norepinephrine uptake", "test": "in vitro [3H]norepinephrine uptake inhibition, rat brain preparation", "type": "biochemical", "settings": "concentration of 1×10^-6 moles", "from_the_text": "as §1"}}, "data": [{"compound": "CCCN(CCC)C1CCc2ccc3cccnc3c2C1", "note": "(centres unmarked) [7,8,9,10-Tetrahydro-N,N-dipropylbenzo[h]quinolin-9-amine]", "values": [{"measurement": "inhibition of [3H]serotonin uptake", "setting": "serotonin uptake", "value": 57, "unit": "%"}, {"measurement": "inhibition of [3H]norepinephrine uptake", "setting": "norepinephrine uptake", "value": 52, "unit": "%"}]}]}
